Measured values: PubChem BioAssay AID248 (DTP/NCI, 2004)
“And” between values parts separate entries of the source, which are not always exact repeats. Equal values may be shown once. Toxic doses and inconclusive results are not listed.

System: L1210 leukemia ip in BDF1 mice, survival T/C
Assay: NCI In Vivo Anticancer Drug Screen. Data for tumor model L1210 Leukemia (intraperitoneal) in B6D2F1 (BDF1) mice
Conditions: endpoint: mean survival time, higher = longer survival
Summary of the method: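 Antitumor effect is assessed in tumor-bearing animals. Survival in the compound arm is compared with a vehicle-dosed control arm and expressed as their quotient.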

[1] = dose: 100.0 mg/kg/injection, schedule: Q01DX001 (ip), vehicle: saline
[2] = dose: 100.0 mg/kg/injection, schedule: Q04DX003 (ip), vehicle: saline
[3] = dose: 400.0 mg/kg/injection, schedule: Q01DX001 (ip), vehicle: saline
[4] = dose: 400.0 mg/kg/injection, schedule: Q04DX003 (ip), vehicle: saline
[5] = dose: 100.0 mg/kg/injection, schedule: Q01DX009 (ip), vehicle: Klucel (hydroxypropylcellulose) (HPC)
[6] = dose: 100.0 mg/kg/injection, schedule: Q04DX003 (ip), vehicle: Klucel (hydroxypropylcellulose) (HPC)
[7] = dose: 100.0 mg/kg/injection, schedule: Q04DX003 (ip), vehicle: saline with Tween-80
[8] = dose: 200.0 mg/kg/injection, schedule: Q04DX003 (ip), vehicle: saline with Tween-80
[9] = dose: 200.0 mg/kg/injection, schedule: Q04DX003 (ip), vehicle: saline
[10] = dose: 100.0 mg/kg/injection, schedule: Q04DX002 (ip), vehicle: Klucel (hydroxypropylcellulose) (HPC)
[11] = dose: 200.0 mg/kg/injection, schedule: Q01DX009 (ip), vehicle: Klucel (hydroxypropylcellulose) (HPC)
[12] = dose: 200.0 mg/kg/injection, schedule: Q04DX002 (ip), vehicle: Klucel (hydroxypropylcellulose) (HPC)
[13] = dose: 50.0 mg/kg/injection, schedule: Q01DX009 (ip), vehicle: saline
[14] = dose: 100.0 mg/kg/injection, schedule: Q01DX009 (ip), vehicle: saline

COC(OC(CO)C(O)S(=O)(=O)O)C(O)S(=O)(=O)O (stereo not drawn)
T/C (dose: 12.5 mg/kg/injection, schedule: Q03HX008 (ip), vehicle: saline): 100 % of control | T/C (dose: 12.5 mg/kg/injection, schedule: Q03HX016 (ip), vehicle: saline): 97 % of control | T/C (dose: 12.5 mg/kg/injection, schedule: Q03HX024 (ip), vehicle: saline): 102 % of control | T/C (dose: 25.0 mg/kg/injection, schedule: Q03HX008 (ip), vehicle: saline): 97 % of control | T/C (dose: 25.0 mg/kg/injection, schedule: Q03HX016 (ip), vehicle: saline): 102 % of control | T/C (dose: 25.0 mg/kg/injection, schedule: Q03HX024 (ip), vehicle: saline): 107 % of control | T/C (dose: 35.0 mg/kg/injection, schedule: Q01DX001 (ip), vehicle: saline): 105 % of control and 114 % of control | T/C (dose: 35.0 mg/kg/injection, schedule: Q01DX009 (ip), vehicle: saline): 123 % of control | T/C (dose: 50.0 mg/kg/injection, schedule: Q01DX009 (sc), vehicle: saline): 107 % of control | T/C (dose: 50.0 mg/kg/injection, schedule: Q03HX008 (ip), vehicle: saline): 117 % of control | T/C (dose: 50.0 mg/kg/injection, schedule: Q03HX016 (ip), vehicle: saline): 113 % of control | T/C (dose: 50.0 mg/kg/injection, schedule: Q03HX024 (ip), vehicle: saline): 122 % of control | T/C (dose: 70.0 mg/kg/injection, schedule: Q01DX001 (ip), vehicle: saline): 112 % of control and 121 % of control | T/C [1]: 244 % of control | T/C (dose: 100.0 mg/kg/injection, schedule: Q01DX009 (oral), vehicle: saline): 107 % of control | T/C (dose: 100.0 mg/kg/injection, schedule: Q01DX009 (sc), vehicle: saline): 115 % of control | T/C (dose: 100.0 mg/kg/injection, schedule: Q03HX008 (ip), vehicle: saline): 152 % of control | T/C (dose: 100.0 mg/kg/injection, schedule: Q03HX024 (ip), vehicle: saline): 167 % of control | T/C [2]: 122 % of control | T/C (dose: 140.0 mg/kg/injection, schedule: Q01DX001 (ip), vehicle: saline): 120 % of control and 121 % of control | T/C (dose: 200.0 mg/kg/injection, schedule: Q01DX009 (ip), vehicle: saline): 151 % of control | T/C (dose: 200.0 mg/kg/injection, schedule: Q01DX009 (oral), vehicle: saline): 116 % of control | T/C (dose: 200.0 mg/kg/injection, schedule: Q01DX009 (sc), vehicle: saline): 113 % of control | T/C (dose: 280.0 mg/kg/injection, schedule: Q01DX001 (ip), vehicle: saline): 124 % of control | T/C (dose: 280.0 mg/kg/injection, schedule: Q01DX009 (ip), vehicle: saline): 152 % of control | T/C [3]: 194 % of control | T/C (dose: 400.0 mg/kg/injection, schedule: Q01DX009 (oral), vehicle: saline): 116 % of control | T/C [4]: 151 % of control | T/C (dose: 800.0 mg/kg/injection, schedule: Q01DX009 (oral), vehicle: saline): 103 % of control

Cc1ccc(N)cn1
T/C (dose: 25.0 mg/kg/injection, schedule: Q01DX009 (ip), vehicle: Klucel (hydroxypropylcellulose) (HPC)): 97 % of control | T/C (dose: 25.0 mg/kg/injection, schedule: Q04DX003 (ip), vehicle: Klucel (hydroxypropylcellulose) (HPC)): 102 % of control | T/C (dose: 50.0 mg/kg/injection, schedule: Q01DX009 (ip), vehicle: Klucel (hydroxypropylcellulose) (HPC)): 100 % of control | T/C (dose: 50.0 mg/kg/injection, schedule: Q04DX003 (ip), vehicle: Klucel (hydroxypropylcellulose) (HPC)): 101 % of control | T/C [5]: 90 % of control | T/C [6]: 98 % of control

CCCC(Br)C(=O)OCC (stereo not drawn)
T/C [7]: 101 % of control | T/C [8]: 96 % of control

O=C(COc1ccccc1)NCc1ccccc1
T/C [2]: 94 % of control | T/C [9]: 92 % of control | T/C [4]: 92 % of control

C=C(C)COC(OCC(=C)C)C(C)C
T/C [5]: 96 % of control | T/C [10]: 102 % of control | T/C [11]: 89 % of control | T/C [12]: 109 % of control | T/C (dose: 400.0 mg/kg/injection, schedule: Q04DX002 (ip), vehicle: Klucel (hydroxypropylcellulose) (HPC)): 112 % of control

CCSC1C(O)C(C(O)CO)OC1n1cnc2c(N)ncnc21 (stereo not drawn)
T/C (dose: 100.0 mg/kg/injection, schedule: Q01DX005 (ip), vehicle: saline): 98 % of control and 105 % of control and 102 % of control | T/C (dose: 200.0 mg/kg/injection, schedule: Q01DX005 (ip), vehicle: saline): 98 % of control and 100 % of control and 96 % of control | T/C (dose: 400.0 mg/kg/injection, schedule: Q01DX005 (ip), vehicle: saline): 104 % of control

Cc1ccc(S(N)(=O)=O)cc1
T/C [7]: 98 % of control | T/C [8]: 98 % of control | T/C (dose: 400.0 mg/kg/injection, schedule: Q04DX003 (ip), vehicle: saline with Tween-80): 96 % of control

CCOc1cccc(Cc2cn(Cc3cccc(NC(=O)c4ccccc4)c3)c(=O)[nH]c2=O)c1
T/C (dose: 100.0 mg/kg/injection, schedule: Q01DX001 (ip), vehicle: saline with Tween-80): 93 % of control | T/C (dose: 200.0 mg/kg/injection, schedule: Q01DX001 (ip), vehicle: saline with Tween-80): 96 % of control | T/C (dose: 400.0 mg/kg/injection, schedule: Q01DX001 (ip), vehicle: saline with Tween-80): 95 % of control

O=C(CCN1CC=C(c2ccccc2)CC1)c1ccc(N2CC=C(c3ccccc3)CC2)cc1
T/C (dose: 75.0 mg/kg/injection, schedule: Q04DX002 (ip), vehicle: saline with Tween-80): 100 % of control | T/C (dose: 150.0 mg/kg/injection, schedule: Q04DX002 (ip), vehicle: saline with Tween-80): 100 % of control | T/C (dose: 300.0 mg/kg/injection, schedule: Q04DX002 (ip), vehicle: saline with Tween-80): 107 % of control

CN(C)c1ccc(CNc2cccc(Cl)c2Cl)cc1
T/C [6]: 94 % of control | T/C (dose: 200.0 mg/kg/injection, schedule: Q04DX003 (ip), vehicle: Klucel (hydroxypropylcellulose) (HPC)): 96 % of control | T/C (dose: 400.0 mg/kg/injection, schedule: Q04DX003 (ip), vehicle: Klucel (hydroxypropylcellulose) (HPC)): 97 % of control

Cc1cccc(Br)[n+]1[O-]
T/C [13]: 110 % of control | T/C [14]: 112 % of control | T/C [2]: 102 % of control | T/C [9]: 97 % of control

CSc1nncc(-c2cnnc(SC)n2)n1
T/C [10]: 108 % of control | T/C [12]: 94 % of control

Cc1ccc(S(=O)(=O)NC(=O)N(CCCl)N=O)cc1
T/C (dose: 10.0 mg/kg/injection, schedule: Q01DX001 (ip), vehicle: other): 113 % of control | T/C (dose: 40.0 mg/kg/injection, schedule: Q01DX001 (ip), vehicle: other): 216 % of control | T/C (dose: 62.0 mg/kg/injection, schedule: Q01DX001 (ip), vehicle: other): 220 % of control | T/C (dose: 93.0 mg/kg/injection, schedule: Q01DX001 (ip), vehicle: other): 307 % of control | T/C (dose: 187.0 mg/kg/injection, schedule: Q01DX001 (ip), vehicle: other): 168 % of control

O=S(=O)(NC(=S)c1ccccc1)c1ccccc1
T/C [13]: 108 % of control | T/C [14]: 97 % of control

Nc1cc(C(=O)O)ccc1Cl
T/C [1]: 105 % of control | T/C (dose: 200.0 mg/kg/injection, schedule: Q01DX001 (ip), vehicle: saline): 95 % of control | T/C [3]: 95 % of control

Cc1ccc(S(=O)(=O)OC2C(O)C(CO)OC2n2c(Br)c(C(N)=O)c3c(N)ncnc32)cc1 (stereo not drawn)
T/C (dose: 25.0 mg/kg/injection, schedule: Q01DX009 (ip), vehicle: water): 100 % of control | T/C (dose: 50.0 mg/kg/injection, schedule: Q01DX009 (ip), vehicle: water): 97 % of control | T/C (dose: 100.0 mg/kg/injection, schedule: Q01DX009 (ip), vehicle: water): 95 % of control | T/C (dose: 200.0 mg/kg/injection, schedule: Q01DX009 (ip), vehicle: water): 93 % of control

C=C1C=C(C)N(C(=O)c2ccc(Cl)cc2)CCN1C(=O)c1ccc(Cl)cc1
T/C [5]: 100 % of control | T/C [11]: 90 % of control | T/C (dose: 400.0 mg/kg/injection, schedule: Q01DX009 (ip), vehicle: Klucel (hydroxypropylcellulose) (HPC)): 92 % of control
